{
  "source": "patent US8153104B2",
  "about": "“Pharmaceutical formulations for dry powder inhalers comprising a low-dosage strength active ingredient” (Chiesi Farmaceutici S.p.A., priority 2005, dated 2012)",
  "test": "Particle size of microparticles by laser diffraction analysis",
  "format": "physicochemical",
  "conditions": "starting material of Example 2",
  "description": "The particle size of the obtained microparticles was determined by laser diffraction analysis. The parameters taken into consideration were: i) the VD in micron of 10%, 50%, and 90% of the particles expressed as d(v, 0.1), d(v, 0.5) and d(v, 0.9), respectively, which correspond to the mass diameter assuming a size independent density for the particles. ii) the polydispersity of the powder, i.e. the width of the particle size distribution which is expressed by the span (span=[d(v, 0.9)−d(v, 0.1)]/d (v, 0.5)—according to Chew N Y et al J Pharm Pharmaceut Sci 2002, 5, 162-168).\nThe agglomerates were isolated by sieving and their particle size distribution determined by laser diffraction analysis.\nThe microparticles were characterised in terms of particle size (laser diffraction analysis) and uniformity of distribution of the active ingredient.",
  "note": "Where a name gives a salt, the structure may show the parent alone.",
  "data": [
    {"compound": "COc1ccc(C[C@@H](C)NC[C@H](O)c2ccc(O)c3[nH]c(=O)ccc23)cc1", "note": "[CHF 4226 hydrochloride, 8-hydroxy-5-[(1R)-1-hydroxy-2-[[(1R)-2-(4-methoxyphenyl)-1-methylethyl]amino]ethyl-2(1H)-quinolinone hydrochloride]", "values": [
      {"measurement": "MMD of micronised active ingredient", "value": 1.8, "unit": "micron"}
    ]}
  ]
}
